Legend:
Assay in all cases: Test D controlled growth environment herbicide test, pre- and postemergence
Assay type in all cases: in vivo
[1] = system: field violet (Viola arvensis)
Procedure, shortened: (§1)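 Species sown in silt loam and sprayed preemergence, or grown in peat-based medium to 2–18 cm (1- to 4-leaf stage) and sprayed postemergence, with compounds in non-phytotoxic solvent plus surfactant. Visual injury scored versus controls after 14–21 d in a controlled environment, 0 (no effect) to 100 (complete control).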

[2] = system: galium (catchweed bedstraw, Galium aparine)
Procedure, shortened: as §1

[3] = system: canarygrass (Phalaris minor)
Procedure, shortened: as §1

[4] = system: speedwell (bird's-eye speedwell, Veronica persica)
Procedure, shortened: as §1

[5] = system: radish, wild (wild radish, Raphanus raphanistrum)
Procedure, shortened: as §1

[6] = system: deadnettle (henbit deadnettle, Lamium amplexicaule)
Procedure, shortened: as §1

[7] = system: oilseed rape (Brassica napus)
Procedure, shortened: as §1

[8] = system: bluegrass (annual bluegrass, Poa annua)
Procedure, shortened: as §1

[9] = system: Russian thistle (Salsola kali)
Procedure, shortened: as §1

[10] = system: barley, spring (spring barley, Hordeum vulgare)
Procedure, shortened: as §1

kochia (Kochia scoparia) = system: kochia (Kochia scoparia)
Procedure, shortened: as §1

[11] = system: ryegrass, Italian (Italian ryegrass, Lolium multiflorum)
Procedure, shortened: as §1

[12] = system: buckwheat, wild (wild buckwheat, Polygonum convolvulus)
Procedure, shortened: as §1

[13] = Postemergence, 31 g ai/ha, scale 0 to 100 (0 no effect, 100 complete control)
[14] = Postemergence, 125 g ai/ha, visual rating on scale 0 (no effect) to 100 (complete control), 14 to 21 d
[15] = Postemergence, 250 g ai/ha, scale 0 to 100 (0 no effect, 100 complete control)
[16] = Preemergence, 62 g ai/ha, scale 0 to 100 (0 no effect, 100 complete control)
[17] = Preemergence, 125 g ai/ha, scale 0 to 100 (0 no effect, 100 complete control)
[18] = Preemergence, 250 g ai/ha, scale 0 to 100, 0 no effect, 100 complete control
[19] = postemergence, 62 g ai/ha, scale 0 to 100, 0 no effect, 100 complete control

`Cc1nn(C)c(=O)c(-c2ccc(Br)c3ccccc23)c1O` [Compound 75] was tested, and the “Field Violet plant response rating” value [1, 13] was 95, the “Plant response rating, Field Violet” value [1, 14] was 95 and the “Plant response rating, Field Violet” value [1, 15] was 100. The “Plant response rating (scale of 0 to 100), Field Violet” value ([1]; Preemergence, 31 g ai/ha) was 95, the “Plant response rating, Field Violet” value [1, 16] was 100 and the “Plant response rating, Field Violet” value [1, 17] was 100. The “Plant response rating, Field Violet” value [1, 18] was 100, the “Plant response rating, Field Violet” value [1, 19] was 100 and the “Galium plant response rating” value [2, 13] was 90. The “Plant response rating, Galium” value [2, 14] was 95, the “Plant response rating, Galium” value [2, 15] was 100 and the “Plant response rating (scale of 0 to 100), Galium” value ([2]; Preemergence, 31 g ai/ha) was 15. The “Plant response rating, Galium” value [2, 16] was 50, the “Plant response rating, Galium” value [2, 17] was 60 and the “Plant response rating, Galium” value [2, 18] was 80. The “Plant response rating, Galium” value [2, 19] was 95, the “Canarygrass plant response rating” value [3, 13] was 15 and the “Plant response rating, Canarygrass” value [3, 14] was 30. The “Plant response rating, Canarygrass” value [3, 15] was 50, the “Plant response rating (scale of 0 to 100), Canarygrass” value ([3]; Preemergence, 31 g ai/ha) was 20 and the “Plant response rating, Canarygrass” value [3, 16] was 55. For the same compound, the “Plant response rating, Canarygrass” value [3, 17] was 70, the “Plant response rating, Canarygrass” value [3, 18] was 75 and the “Plant response rating, Canarygrass” value [3, 19] was 15. For the same compound, the “Speedwell plant response rating” value [4, 13] was 80, the “Plant response rating, Speedwell” value [4, 14] was 100 and the “Plant response rating, Speedwell” value [4, 15] was 100. The “Plant response rating (scale of 0 to 100), Speedwell” value ([4]; Preemergence, 31 g ai/ha) was 95, the “Plant response rating, Speedwell” value [4, 16] was 100 and the “Plant response rating, Speedwell” value [4, 17] was 100. For the same compound, the “Plant response rating, Speedwell” value [4, 18] was 100, the “Plant response rating, Speedwell” value [4, 19] was 100 and the “Radish, Wild plant response rating” value [5, 13] was 95. The “Plant response rating, Radish, Wild” value [5, 14] was 100, the “Plant response rating, Radish, Wild” value [5, 15] was 100 and the “Plant response rating (scale of 0 to 100), Radish, Wild” value ([5]; Preemergence, 31 g ai/ha) was 40. For the same compound, the “Plant response rating, Radish, Wild” value [5, 16] was 70, the “Plant response rating, Radish, Wild” value [5, 17] was 100 and the “Plant response rating, Radish, Wild” value [5, 18] was 100. The “Plant response rating, Radish, Wild” value [5, 19] was 100, the “Deadnettle plant response rating” value [6, 13] was 75 and the “Plant response rating, Deadnettle” value [6, 14] was 95. For the same compound, the “Plant response rating, Deadnettle” value [6, 15] was 100, the “Plant response rating (scale of 0 to 100), Deadnettle” value ([6]; Preemergence, 31 g ai/ha) was 30 and the “Plant response rating, Deadnettle” value [6, 16] was 55. For the same compound, the “Plant response rating, Deadnettle” value [6, 17] was 90, the “Plant response rating, Deadnettle” value [6, 18] was 100 and the “Plant response rating, Deadnettle” value [6, 19] was 90. The “Oilseed Rape plant response rating” value [7, 13] was 70, the “Plant response rating, Oilseed Rape” value [7, 14] was 95 and the “Plant response rating, Oilseed Rape” value [7, 15] was 100. The “Plant response rating (scale of 0 to 100), Oilseed Rape” value ([7]; Preemergence, 31 g ai/ha) was 50, the “Plant response rating, Oilseed Rape” value [7, 16] was 75 and the “Plant response rating, Oilseed Rape” value [7, 17] was 100. The “Plant response rating, Oilseed Rape” value [7, 18] was 100, the “Plant response rating, Oilseed Rape” value [7, 19] was 95 and the “Bluegrass plant response rating” value [8, 13] was 10. The “Plant response rating, Bluegrass” value [8, 14] was 15, the “Plant response rating, Bluegrass” value [8, 15] was 15 and the “Plant response rating (scale of 0 to 100), Bluegrass” value ([8]; Preemergence, 31 g ai/ha) was 15. For the same compound, the “Plant response rating, Bluegrass” value [8, 16] was 15, the “Plant response rating, Bluegrass” value [8, 17] was 10 and the “Plant response rating, Bluegrass” value [8, 18] was 35. The “Plant response rating, Bluegrass” value [8, 19] was 10, the “Russian Thistle plant response rating” value [9, 13] was 80 and the “Plant response rating, Russian Thistle” value [9, 14] was 85. For the same compound, the “Plant response rating, Russian Thistle” value [9, 15] was 85, the “Plant response rating (scale of 0 to 100), Russian Thistle” value ([9]; Preemergence, 31 g ai/ha) was 0 and the “Plant response rating, Russian Thistle” value [9, 16] was 0. For the same compound, the “Plant response rating, Russian Thistle” value [9, 17] was 25, the “Plant response rating, Russian Thistle” value [9, 18] was 35 and the “Plant response rating, Russian Thistle” value [9, 19] was 80. For the same compound, the “Barley, Spring plant response rating” value [10, 13] was 0, the “Plant response rating, Barley, Spring” value [10, 14] was 0 and the “Plant response rating, Barley, Spring” value [10, 15] was 0. The “Plant response rating (scale of 0 to 100), Barley, Spring” value ([10]; Preemergence, 31 g ai/ha) was 0, the “Plant response rating, Barley, Spring” value [10, 16] was 0 and the “Plant response rating, Barley, Spring” value [10, 17] was 0. For the same compound, the “Plant response rating, Barley, Spring” value [10, 18] was 0, the “Plant response rating, Barley, Spring” value [10, 19] was 0 and the “Kochia plant response rating” value (kochia (Kochia scoparia); [13]) was 95. The “Plant response rating, Kochia” value (kochia (Kochia scoparia); [14]) was 100, the “Plant response rating, Kochia” value (kochia (Kochia scoparia); [15]) was 100 and the “Plant response rating (scale of 0 to 100), Kochia” value (kochia (Kochia scoparia); Preemergence, 31 g ai/ha) was 65. For the same compound, the “Plant response rating, Kochia” value (kochia (Kochia scoparia); [16]) was 80, the “Plant response rating, Kochia” value (kochia (Kochia scoparia); [17]) was 80 and the “Plant response rating, Kochia” value (kochia (Kochia scoparia); [18]) was 100. For the same compound, the “Plant response rating, Kochia” value (kochia (Kochia scoparia); [19]) was 100, the “Ryegrass, Italian plant response rating” value [11, 13] was 90 and the “Plant response rating, Ryegrass, Italian” value [11, 14] was 95. For the same compound, the “Plant response rating, Ryegrass, Italian” value [11, 15] was 98, the “Plant response rating (scale of 0 to 100), Ryegrass, Italian” value ([11]; Preemergence, 31 g ai/ha) was 95 and the “Plant response rating, Ryegrass, Italian” value [11, 16] was 100. For the same compound, the “Plant response rating, Ryegrass, Italian” value [11, 17] was 100, the “Plant response rating, Ryegrass, Italian” value [11, 18] was 0 and the “Plant response rating, Ryegrass, Italian” value [11, 19] was 95. The “Buckwheat, Wild plant response rating” value [12, 13] was 100, the “Plant response rating, Buckwheat, Wild” value [12, 14] was 100 and the “Plant response rating, Buckwheat, Wild” value [12, 15] was 100. For the same compound, the “Plant response rating (scale of 0 to 100), Buckwheat, Wild” value ([12]; Preemergence, 31 g ai/ha) was 0, the “Plant response rating, Buckwheat, Wild” value [12, 16] was 0 and the “Plant response rating, Buckwheat, Wild” value [12, 17] was 0. For the same compound, the “Plant response rating, Buckwheat, Wild” value [12, 18] was 50 and the “Plant response rating, Buckwheat, Wild” value [12, 19] was 100.
